# Assay results published in article PMC7914897, “Cytotoxic Potential of a-Azepano- and 3-Amino-3,4-SeCo-Triterpenoids” (International Journal of Molecular Sciences, 2021).
# Columns and labels:
# CCRF-CEM (Leukemia) = test: NCI-60 screen (SRB, 48 h); conditions: Homo sapiens
# CAKI-1 (Renal cancer) = test: NCI-60 screen (SRB, 48 h); conditions: Homo sapiens, CAKI-1
# [1] = tested on: A2780 (ovarian carcinoma); test: SRB cytotoxicity assay, 72 h; type: cell-based, human; conditions: Homo sapiens; A2780, 72 h, cut-off 30 µM; read-out: EC50
# Experimental: (§1) The cytotoxicity of compounds 1–20 was evaluated by means of a colorimetric sulforhodamine B (SRB) assay. For all compounds, the EC50 values were determined for the human tumor cell lines A375 (malignant melanoma), HT29 (colorectal carcinoma), MCF-7 (breast carcinoma), A2780 (ovarian carcinoma), FaDu (hypopharyngeal carcinoma), and NIH 3T3 (non-malignant mouse fibroblasts).
# (§2) In short, exponentially growing cells were seeded into 96-well plates on day 0 at the appropriate cell densities to prevent confluence of the cells during the period of experiment. After 24 h, the cells were treated with serial dilutions of the compounds (0–30 µM) for 72 h. The final concentration of DMSO never exceeded 0.5%, which was non-toxic to the cells. After a 72 h treatment, the supernatant medium from the 96-well plates was discarded, and the cells were fixed with 10% TCA. For a thorough fixation, the plates were allowed to rest at 4 °C. After fixation, the cells were washed in a strip washer. The washing was done four times with water using alternate dispensing and aspiration procedures. The plates were then dyed with 100 µL of 0.4% SRB for about 20 min. After dying, the plates were washed with 1% acetic acid to remove the excess of the dye and allowed to air-dry overnight. Tris base solution (200 µL, 10 mM) was added to each well and absorbance was measured at λ = 570 nm (using a 96 well plate reader, Tecan Spectra, Crailsheim, Germany). The percentages of surviving cells relative to untreated controls were determined.
# [2] = tested on: HT29 (colorectal carcinoma); test: SRB cytotoxicity assay, 72 h; type: cell-based, human; conditions: Homo sapiens, HT-29; HT29, 72 h, cut-off 30 µM; read-out: EC50
# Experimental: as §1, §2
# [3] = tested on: FaDu (hypopharyngeal carcinoma); test: SRB cytotoxicity assay, 72 h; type: cell-based, human; conditions: Homo sapiens, cut-off 30 µM, read-out: EC50
# Experimental: as §1, §2
# [4] = tested on: A375 (malignant melanoma); test: SRB cytotoxicity assay, 72 h; type: cell-based, human; conditions: Homo sapiens, A-375, 72 h, A375, 72 h, cut-off 30 µM; read-out: EC50
# Experimental: as §1, §2
# PC-3 (Prostate cancer) = test: NCI-60 screen (SRB, 48 h); conditions: Homo sapiens, PC-3
# NSC lung cancer subpanel = test: NCI-60 screen, subpanel; conditions: Homo sapiens
# 786-0 (Renal cancer) = test: NCI-60 screen (SRB, 48 h); conditions: Homo sapiens
# IGROV1 (Ovarian cancer) = test: NCI-60 screen (SRB, 48 h); conditions: Homo sapiens
# T-47D (Breast cancer) = test: NCI-60 screen (SRB, 48 h); conditions: Homo sapiens, T47D
# UO-31 (Renal cancer) = test: NCI-60 screen (SRB, 48 h); conditions: Homo sapiens, UO-31
# RPMI-8226 (Leukemia) = test: NCI-60 screen (SRB, 48 h); conditions: Homo sapiens, RPMI-8226
# Prostate cancer subpanel = test: NCI-60 screen, subpanel; conditions: Homo sapiens
# EKVX (NSC lung cancer) = test: NCI-60 screen (SRB, 48 h); conditions: Homo sapiens
# SK-OV-3 (Ovarian cancer) = test: NCI-60 screen (SRB, 48 h); conditions: Homo sapiens
# KM12 (Colon cancer) = test: NCI-60 screen (SRB, 48 h); conditions: Homo sapiens
# Renal Cancer subpanel = test: NCI-60 screen, subpanel; conditions: Homo sapiens
# [5] = tested on: A549/ATCC (NSC lung cancer); test: NCI-60 screen (SRB, 48 h); conditions: Homo sapiens, A549
# SK-MEL-2 (Melanoma) = test: NCI-60 screen (SRB, 48 h); conditions: Homo sapiens
# UACC-62 (Melanoma) = test: NCI-60 screen (SRB, 48 h); conditions: Homo sapiens
# [6] = tested on: NCI-H522 (NSC lung cancer); test: NCI-60 screen (SRB, 48 h); conditions: Homo sapiens
smiles,measurement,setting,value
C[C@H]1[C@H](C)CC[C@]2(C(=O)Nc3ccc4ncccc4c3)CC[C@]3(C)C(=CC[C@@H]4[C@@]5(C)CCCNC(C)(C)[C@@H]5CC[C@]43C)[C@H]12 [Compound 14],GI50,CCRF-CEM (Leukemia),1670 nM
same,GI50,CAKI-1 (Renal cancer),1560 nM
same,EC50,[1],1800 ± 100 nM
same,EC50,[2],1550 ± 100 nM
same,EC50,[3],1790 ± 200 nM
same,EC50,[4],1570 ± 800 nM
same,GI50,PC-3 (Prostate cancer),1760 nM
same,IC (TGI),"NSC lung cancer subpanel; 48 h, read-out: TGI MG_MID",3.36 µM
same,GI50,NSC lung cancer subpanel; read-out: GI50 MG_MID,1780 nM
same,CC50,NSC lung cancer subpanel; read-out: LC50 MG_MID,7.53 µM
same,GI50,786-0 (Renal cancer); 786-0,1850 nM
same,IC (TGI),"786-0 (Renal cancer); 786-0, 48 h, read-out: TGI",3.48 µM
same,GI50,IGROV1 (Ovarian cancer); IGROV-1,1700 nM
same,IC (TGI),"IGROV1 (Ovarian cancer); IGROV-1, 48 h, read-out: TGI",3.37 µM
same,CC50,"IGROV1 (Ovarian cancer); IGROV-1, read-out: LC50",6.69 µM
same,GI50,T-47D (Breast cancer),1670 nM
same,IC (TGI),"T-47D (Breast cancer); 48 h, read-out: TGI",3.64 µM
same,GI50,UO-31 (Renal cancer),1500 nM
same,GI50,RPMI-8226 (Leukemia),1600 nM
same,IC (TGI),"Prostate cancer subpanel; 48 h, read-out: TGI MG_MID",3.28 µM
same,GI50,Prostate cancer subpanel; read-out: GI50 MG_MID,1760 nM
same,GI50,EKVX (NSC lung cancer),1660 nM
same,GI50,SK-OV-3 (Ovarian cancer); SK-OV-3,1770 nM
same,IC (TGI),"SK-OV-3 (Ovarian cancer); SK-OV-3, 48 h, read-out: TGI",3.27 µM
same,GI50,KM12 (Colon cancer); KM12,1890 nM
same,IC (TGI),"KM12 (Colon cancer); KM12, 48 h, read-out: TGI",3.63 µM
same,IC (TGI),"Renal Cancer subpanel; 48 h, read-out: TGI MG_MID",3.24 µM
same,GI50,Renal Cancer subpanel; read-out: GI50 MG_MID,1660 nM
same,CC50,Renal Cancer subpanel; read-out: LC50 MG_MID,5.6 µM
same,GI50,[5],1810 nM
same,GI50,SK-MEL-2 (Melanoma); SK-MEL-2,1840 nM
same,IC (TGI),"SK-MEL-2 (Melanoma); SK-MEL-2, 48 h, read-out: TGI",3.43 µM
same,CC50,"SK-MEL-2 (Melanoma); SK-MEL-2, read-out: LC50",6.42 µM
same,GI50,UACC-62 (Melanoma); UACC-62,1740 nM
same,IC (TGI),"UACC-62 (Melanoma); UACC-62, 48 h, read-out: TGI",3.23 µM
same,CC50,"UACC-62 (Melanoma); UACC-62, read-out: LC50",6 µM
same,GI50,[6]; NCI-H522,1750 nM
same,IC (TGI),"[6]; NCI-H522, 48 h, read-out: TGI",3.33 µM
